ChEMBL document CHEMBL1127959, “Thia-prostanoid analogs with combined thromboxane receptor antagonist/thromboxane synthase inhibitor activities. Synthesis and pharmacological evaluation” (Bioorg Med Chem Lett, 1994)

Experiments:
Thromboxane-A synthase = target: T1, Thromboxane-A synthase (Homo sapiens, UniProt P24557); experiment: In vitro inhibition of thromboxane synthase
T1 sequence (P24557 whole entry): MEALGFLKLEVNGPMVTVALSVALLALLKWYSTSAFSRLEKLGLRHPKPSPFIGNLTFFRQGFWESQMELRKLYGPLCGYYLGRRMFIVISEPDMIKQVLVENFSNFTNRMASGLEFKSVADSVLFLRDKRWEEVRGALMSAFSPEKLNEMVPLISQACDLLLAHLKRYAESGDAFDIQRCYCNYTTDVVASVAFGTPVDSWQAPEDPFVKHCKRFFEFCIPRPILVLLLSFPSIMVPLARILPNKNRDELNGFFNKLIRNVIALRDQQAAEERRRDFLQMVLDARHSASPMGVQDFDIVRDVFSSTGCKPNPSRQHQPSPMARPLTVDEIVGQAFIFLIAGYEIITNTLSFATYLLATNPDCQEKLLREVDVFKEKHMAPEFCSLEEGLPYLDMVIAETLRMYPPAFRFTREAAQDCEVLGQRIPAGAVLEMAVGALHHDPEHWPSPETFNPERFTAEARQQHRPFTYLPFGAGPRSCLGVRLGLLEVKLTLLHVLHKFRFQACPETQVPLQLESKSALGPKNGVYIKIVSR

Thromboxane A2 receptor = target: T2, Thromboxane A2 receptor (Homo sapiens, UniProt P21731); experiment: In vitro thromboxane receptor antagonist activity was determined by inhibition of U-46619 induced aggregation of washed human platelets; type: functional
T2 sequence (P21731 whole entry): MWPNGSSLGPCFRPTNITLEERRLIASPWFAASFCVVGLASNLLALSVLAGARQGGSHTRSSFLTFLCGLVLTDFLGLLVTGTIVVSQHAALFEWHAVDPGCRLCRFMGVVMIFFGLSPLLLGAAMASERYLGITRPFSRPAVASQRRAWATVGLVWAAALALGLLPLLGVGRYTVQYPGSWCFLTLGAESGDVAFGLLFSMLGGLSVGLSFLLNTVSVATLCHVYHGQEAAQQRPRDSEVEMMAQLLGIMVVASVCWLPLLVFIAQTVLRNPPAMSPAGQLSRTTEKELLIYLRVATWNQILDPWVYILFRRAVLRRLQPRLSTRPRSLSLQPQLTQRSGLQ

SMILES	IC50 (Thromboxane-A synthase) [nM]	IC50 (Thromboxane A2 receptor)
O=C(O)CC/C=C\CC[C@@H]1[C@@H](c2cccnc2)[S@@+]([O-])C[C@H]1OCc1ccc(-c2ccccc2)cc1	> 200	–
O=C(O)CC/C=C\CC[C@@H]1[C@@H](c2cccnc2)[S@+]([O-])C[C@H]1OCc1ccc(-c2ccccc2)cc1	> 200	–
O=C(O)CC/C=C\CC[C@H]1[C@@H](OCc2ccc(-c3ccccc3)cc2)CS(=O)(=O)[C@@H]1c1cccnc1	> 200	–
O=C(O)CC/C=C\CC[C@H]1[C@@H](OCc2ccc(-c3ccccc3)cc2)CS[C@@H]1c1cccnc1	11	–
O=C(O)CC/C=C\CC[C@H]1[C@@H](OCc2ccc(-c3ccccc3)cc2)C[S+]([O-])[C@@H]1c1cccnc1 (some centres not stated)	> 100	–
O=C(O)CC/C=C\CC[C@@H]1[C@@H](c2cccnc2)S(=O)(=O)C[C@H]1OCc1ccc(-c2ccccc2)cc1	> 200	–
O=C(O)CCC/C=C\C[C@@H]1[C@@H](c2cccnc2)SC[C@H]1OCc1ccc(-c2ccccc2)cc1	43	–
O=C(O)CC/C=C\CC[C@@H]1[C@@H](c2cccnc2)SC[C@H]1OCc1ccc(-c2ccccc2)cc1 (stereo in doubt; 1)	10	–
O=C(O)CC/C=C\CC[C@@H]1[C@@H](c2cccnc2)SC[C@H]1OCc1ccc(-c2ccccc2)cc1 (stereo in doubt; (+))	18	–
O=C(O)CC/C=C\CC[C@@H]1[C@@H](c2cccnc2)SC[C@H]1OCc1ccc(-c2ccccc2)cc1 (stereo in doubt; (-))	13	–
O=C(O)CCCCCc1cccc2cncn12 [PIRMAGREL]	3	Not Active
